Consider five compounds from patent publication US11053212B2, “Benzimidazole derivatives as bromodomain inhibitors” (GLAXOSMITHKLINE INTELLECTUAL PROPERTY DEVELOPMENT LIMITED, priority 2015, dated 2021).

Structures can show the parent of a compound that is named as a salt. Where two headings read alike, the source gives them in different places.

Assay [1] relates to LPS induced MCP-1 production. As to the kind of experiment: LPS induced MCP-1 production from human whole blood. Format: cell-based. The settings on record: LPS 200 ng/mL, 18-24 hours; for IC50: read-out: mean pIC50, LPS induced MCP-1 production (converted). From the text: Measurement of LPS Induced MCP-1 Production from Human Whole Blood
Activation of monocytic cells by agonists of toll-like receptors such as bacterial lipopolysaccharide (LPS) results in production of key inflammatory mediators including MCP-1. Such pathways are widely considered to be central to the pathophysiology of a range of auto-immune and inflammatory disorders. Blood is collected in a tube containing Sodium heparin (Leo Pharmaceuticals) (10 units of heparin/mL of blood). 96-well compound plates containing 1 μL test sample in 100% DMSO were prepared (two replicates on account of donor variability). 130 μL of whole blood was dispensed into each well of the 96-well compound plates and incubated for 30 min at 37° C., 5% CO2. 10 μL of lipopolysaccharide (from Salmonella typhosa; L6386) made up in PBS (200 ng/mL final assay concentration) was added to each well of the compound plates. The plates were then placed in the humidified primary cell incubator for 18-24 hours at 37° C., 5% CO2. 140 μL of PBS was added to all wells of the compound plates containing blood. The plates were then sealed and centrifuged for 10 mins at 2500 rpm. 25 μL of cell supernatant was placed in a 96-well MSD plate pre-coated with human MCP-1 capture antibody. The plates were sealed and placed on a shaker at 600 rpm for 1 hour (r.t). 25 μL of Anti-human MCP-1 antibody labelled with MSD SULFO-TAG™ reagent is added to each well of the MSD plate (stock 50× was diluted 1:50 with Diluent 100, final assay concentration is 1 μg/mL). The plates were then re-sealed and shaken for another hour before washing with PBS. 150 μL of 2×MSD Read Buffer T (stock 4×MSD Read Buffer T was diluted 50:50 with de-ionised water) was then added to each well and the plates read on the MSD Sector Imager 6000. Concentration response curves for each compound were generated from the data and an pIC50 value was calculated.

For a further assay, the target named is T1, BRD4 BD1 (Homo sapiens, UniProt O60885, Y390A).
T1 construct: BRD4 (1-477) (Y97A) and (Y390A); made in house; host or cells: E. coli (pET15b vector)
Kind of assay: TR-FRET binding assay, BRD4 BD1 (mutant protein). The following applies: 10 nM mutated bromodomain protein, Alexa Fluor647 ligand at Kd, read-out: mean pIC50 in the BRD4 BD1 assay (converted). Here is the method:
(§1) Biological Data Time Resolved Fluorescence Resonance Energy Transfer (TR-FRET) Assay
(§2) Binding was assessed using a time resolved fluorescent resonance energy transfer binding assay. This utilises a 6 His purification tag at the N-terminal of the proteins as an epitope for an anti-6 His antibody labeled with Europium chelate (PerkinElmer AD0111) allowing binding of the Europium to the proteins which acts as the donor fluorophore.
(§3) In the absence of a competing compound, excitation of the Europium causes the donor to emit at λ618 nm which excites the Alexa labelled bromodomain binding compound leading to an increased energy transfer that is measurable at λ647 nM. In the presence of a sufficient concentration of a compound that can bind these proteins, the interaction is disrupted leading to a quantifiable drop in fluorescent resonance energy transfer.
The binding of compounds of the invention to Bromodomains BRD2, BRD3, BRD4 and BRDT was assessed using mutated proteins to detect differential binding to either Binding Domain 1 (BD1) or Binding Domain 2 (BD2) on the bromodomain. […] Therefore in the final assay conditions, binding of the fluoroligand to the mutated domain cannot be detected and subsequently the assay is suitable to determine the binding of compounds to the single non-mutated bromodomain. […]
All assay components were dissolved in buffer composition of 50 mM HEPES pH7.4, 50 mM NaCl, 5% Glycerol, 1 mM DTT and 1 mM CHAPS. […] Plates were then read on the Envision plate reader, (⋅ex=317 nm, donor ⋅em=615 nm; acceptor ⋅em=665 nm; Dichroic LANCE dual). Time resolved fluorescent intensity measurements were made at both emission wavelengths and the ratio of acceptor/donor was calculated and used for data analysis. […]
For orientation: Time-resolved FRET reads energy transfer from a long-lived donor to a nearby acceptor.

In a further assay the target is T2, BRD4 BD2 (Homo sapiens, UniProt O60885, Y97A).
T2 construct: BRD4 (1-477) (Y97A) and (Y390A); made in house; host or cells: E. coli (pET15b vector)
As to the kind of experiment: TR-FRET binding assay, BRD4 BD2 (mutant protein). The settings on record: 10 nM mutated bromodomain protein, Alexa Fluor647 ligand at Kd, read-out: mean pIC50 in the BRD4 BD2 assay (converted). Here is the method: as §1, §2, §3
The binding of compounds of the invention to Bromodomains BRD2, BRD3, BRD4 and BRDT was assessed using mutated proteins to detect differential binding to either Binding Domain 1 (BD1) or Binding Domain 2 (BD2) on the bromodomain. […] Therefore in the final assay conditions, binding of the fluoroligand to the mutated domain cannot be detected and subsequently the assay is suitable to determine the binding of compounds to the single non-mutated bromodomain.
Recombinant Human Bromodomains [(BRD2 (1-473) (Y113A) and (Y386A), BRD3 (1-435) (Y73A) and (Y348A) BRD4 (1-477) (Y97A) and (Y390A) and BRDT (1-397) (Y66A) and (Y309A)] were expressed in E coli cells (in pET15b vector for BRD2/3/4 and in pET28a vector for BRDT) with a 6-His tag at the N-terminal. The His-tagged Bromodomain pellet was resuspended in 50 mM HEPES (pH7.5), 300 mM NaCl, 10 mM imidazole & 1 μl/ml protease inhibitor cocktail and extracted from the E coli cells using sonication and purified using a nickel sepharose high performance column, the proteins were washed and then eluted with a linear gradient of 0-500 mM imidazole with buffer 50 mM HEPES (pH7.5), 150 mM NaCl, 500 mM imidazole, over 20 column volumes. Final purification was completed by Superdex 200 prep grade size exclusion column. Purified protein was stored at −80° C. in 20 mM HEPES pH 7.5 and 100 mM NaCl.
All assay components were dissolved in buffer composition of 50 mM HEPES pH7.4, 50 mM NaCl, 5% Glycerol, 1 mM DTT and 1 mM CHAPS. The final concentration of bromodomain proteins were 10 nM and the Alexa Fluor647 ligand was at Kd. These components were premixed and 5 μl of this reaction mixture was added to all wells containing 50 nl of various concentrations of test compound or DMSO vehicle (0.5% DMSO final) in Greiner 384 well black low volume microtitre plates and incubated in dark for 30 minutes at rt. […] of detection mixture containing 1.5 nM final concentration anti-6His Europium chelate was added to all wells and a further dark incubation of at least 30 minutes was performed. Plates were then read on the Envision plate reader, (⋅ex=317 nm, donor ⋅em=615 nm; acceptor ⋅em=665 nm; Dichroic LANCE dual). Time resolved fluorescent intensity measurements were made at both emission wavelengths and the ratio of acceptor/donor was calculated and used for data analysis. All data was normalized to the mean of 16 high (inhibitor control—Example 11 of WO 2011/054846A1) and 16 low (DMSO) control wells on each plate. A four parameter curve fit of the following form was then applied: y=a+((b−a)/(1+(10^x/10^c)^d) Where ‘a’ is the minimum, […], ‘c’ is the pIC50 and […].

Consider `COCC(COC)n1c(-c2cc(C)c(=O)n(C)c2)nc2cc(CN[C@H](C(=O)O)[C@@H](C)O)ccc21` [Example 66, (2S,3R)-2-(((1-(1,3-dimethoxypropan-2-yl)-2-(1,5-dimethyl-6-oxo-1,6-dihydropyridin-3-yl)-1H-benzo[d]imidazol-5-yl)methyl)amino)-3-hydroxybutanoic acid hydrochloride], for which the IC50 is 1000 nM in assay [1], 200 nM at BRD4 BD1 and 1260 nM on BRD4 BD2.

In the case of `Cc1cc(-c2nc3cc(CN[C@H](C(=O)O)[C@@H](C)O)ccc3n2CC2CCOCC2)cn(C)c1=O` [Example 68, (2S,3R)-2-(((2-(1,5-dimethyl-6-oxo-1,6-dihydropyridin-3-yl)-1-((tetrahydro-2H-pyran-4-yl)methyl)-1H-benzo[d]imidazol-5-yl)methyl)amino)-3-hydroxybutanoic acid hydrochloride], the IC50 was 3980 nM in assay [1], 251 nM on BRD4 BD1 and 631 nM on BRD4 BD2.

Turning to `Cc1cc(-c2nc3cc(CN[C@H](C(=O)OC(C)C)[C@@H](C)O)ccc3n2CC2CCOCC2)cn(C)c1=O` [Example 303, (2S,3R)-isopropyl 2-(((2-(1,5-dimethyl-6-oxo-1,6-dihydropyridin-3-yl)-1-((tetrahydro-2H-pyran-4-yl)methyl)-1H-benzo[d]imidazol-5-yl)methyl)amino)-3-hydroxybutanoate], the IC50 in assay [1] (Homo sapiens) was 25.1 nM.

`COCC(COC)n1c(-c2cc(C)c(=O)n(C)c2)nc2cc(CN[C@H](C(=O)OC(C)C)[C@@H](C)O)ccc21` [Example 305, (2S,3R)-Isopropyl 2-(((1-(1,3-dimethoxypropan-2-yl)-2-(1,5-dimethyl-6-oxo-1,6-dihydropyridin-3-yl)-1H-benzo[d]imidazole-5-yl)methyl)amino)-3-hydroxybutanoate]: the IC50 is 10 nM in assay [1], 50.1 nM on BRD4 BD1 and 398 nM at BRD4 BD2.

Regarding `Cc1cc(-c2nc3cc(CN[C@H](C(=O)OC(C)C)[C@@H](C)O)ccc3n2CC2CCOCC2)cn(C)c1=O` [edisylate salt of Example 303, 1,2-ethanedisulphonic acid salt of (2S,3R)-isopropyl 2-(((2-(1,5-dimethyl-6-oxo-1,6-dihydropyridin-3-yl)-1-((tetrahydro-2H-pyran-4-yl)methyl)-1H-benzo[d]imidazol-5-yl)methyl)amino)-3-hydroxybutanoate], the “mean pIC50, LPS induced MCP-1 production” value in assay [1] is given as 7.5.
